In patent US20110189669A1, “METHODS OF AIDING IN THE DIAGNOSIS OF PROSTATE CANCER” (IMPERIAL INNOVATIONS LIMITED, priority 2008, published 2011):

Experiments:
GNMT = details: cited from earlier work
LNCaP cells [1] = assay: gene expression microarray of androgen-regulated genes in LNCaP cells; format: cell-based
Method: Microarray analysis was carried out on RNAs prepared from three bioreplicate cultures for the no ligand and R1881 treatments.
In order to identify androgen-regulated genes in LNCaP cells, we have performed gene expression microarray profiling using the Applied Biosystems Genome Survey Microarray V2.0. […] These genes include known androgen-responsive genes, including PSA (KLK3), KLK2, DRG-1 and TMPRSS2.
Detailed time course studies were undertaken to determine the time of androgen treatment for optimal expression of androgen-responsive genes (PSA and DRG-1) in the LNCaP cells (FIG. 1A-D). On the basis of these studies, RNA from […] bio-replicate cultures were prepared from LNCaP cells treated with androgen for 24 hours, as well as the no ligand control. The RNAs were subjected to RNA quality assays and validated by real-time RT-PCR for two control genes (GAPDH and RPLPO) and the androgen regulated genes PSA, DRG-1 and GREB-1. […] Three replicates from each treatment set were subsequently used for hybridisation to the Applied Biosystems (ABI) Human Genome Survey Microarray V2.0, which has probes for 29,098 genes, representing the most comprehensive coverage currently available for any human gene expression microarray platform. Raw data were quality assessed and filtered according to the recommendations supplied by the ABI1700 Data Analysis User Guide and the filtered data “vsn normalised” (4). Differential expression was assessed using liner models and empirical Bayes algorithms as described in (5). This analysis has robustly defined 456 probes whose expression was stimulated by androgen by two fold or greater, with positive lod scores (B values) for differential expression.

LNCaP cells [2] = assay: LNCaP cell growth (Sulphorhodamine B cell staining / cell numbers); format: cell-based
Method: A) LNCaP cell growth is stimulated by the synthetic androgen R1881 (1 nM), as measured using the Sulphorhodamine B cell staining assay.
LNCaP cells were cultured in the absence or presence of 1 nM R1881 and increasing concentrations of SAH for 6 days at which point cell numbers were measured.
Biological methylation reactions which utilise S-adenosylmethionine (SAM) as a methyl donor encompass several key cellular and metabolic processes and include the methylation of phospholipids, proteins, DNA and RNA. This class of reaction is carried out by methyltransferases that are represented by a diverse group of distantly related proteins (8-10), with domains that catalyse the transfer of the methyl group from SAM to a molecular substrate, together with the in-situ generation of SAH. For most methyltransferases, SAH is known to have a higher affinity than SAM for the catalytic site, thereby acting as a potent feedback inhibitor of methyltransferase activity within the cell. […] In most tissues, the balance between SAM and SAH and the subsequent regulation of global methylation activity resides in the ability to rapidly metabolise SAH through the enzyme S-adenosylhomocysteine hydrolase (SAH hydrolase). […] GNMT is a phylogenetically conserved enzyme (12) that methylates Glycine to produce N-Methyl Glycine (sarcosine), which is known to be largely physiologically inert, and also generates SAH. […]

| Compound | inhibition of GNMT (literature statement) (GNMT) | up-regulation of DRG-1 expression (LNCaP cells [1]; 24 hours androgen treatment) [fold] | up-regulation of KLK2 expression (LNCaP cells [1]; 24 hours androgen treatment) [fold] | up-regulation of PSA (KLK3) expression (LNCaP cells [1]; 24 hours androgen treatment) [fold] | up-regulation of TMPRSS2 expression (LNCaP cells [1]; 24 hours androgen treatment) [fold] | increase in GNMT gene expression (LNCaP cells [1]; within 24 hours of androgen treatment) [fold] | LNCaP cell growth (LNCaP cells [2]; R1881 1 nM, Sulphorhodamine B assay) | effect on androgen-stimulated growth of LNCaP cells (LNCaP cells [2]; 1 nM R1881 plus increasing concentrations of SAH, 6 days) |
| --- | --- | --- | --- | --- | --- | --- | --- | --- |
| Nc1nc2ncc(CNc3ccc(C(=O)N[C@@H](CCC(=O)O)C(=O)O)cc3)nc2c(=O)[nH]1 [Folic acid] | allosteric inhibitor |  |  |  |  |  |  |  |
| C[C@]1(O)CC[C@H]2[C@@H]3CCC4=CC(=O)CCC4=C3C=C[C@@]21C [R1881] |  | 24 | 32 | 30 | 16 | 16 | stimulated |  |
| Nc1ncnc2c1ncn2[C@@H]1O[C@H](CSCC[C@H](N)C(=O)O)[C@@H](O)[C@H]1O [SAH, S-adenosyl-homocysteine] | relatively insensitive |  |  |  |  |  |  | potentiates the androgen-stimulated growth |
